Results on 30 molecules are retold here after ChEMBL document CHEMBL4304797, “Discovery of GSK2798745: A Clinical Candidate for Inhibition of Transient Receptor Potential Vanilloid 4 (TRPV4)” (ACS Med Chem Lett, 2019).

Some results are limits rather than exact numbers.

For data set [1], the target named is Transient receptor potential cation channel subfamily V member 4 (Homo sapiens, UniProt Q9HBA0). Nature of the data set: Inhibition of human TRPV4 expressed in baculovirus infected HEK/MSR 2 cells pre-incubated for 10 mins followed by GSK634775A addition by Fura-2 dye based FLIPR assay.
Transient receptor potential cation channel subfamily V member 4 (Homo sapiens, UniProt Q9HBA0), sequence (Q9HBA0 whole entry): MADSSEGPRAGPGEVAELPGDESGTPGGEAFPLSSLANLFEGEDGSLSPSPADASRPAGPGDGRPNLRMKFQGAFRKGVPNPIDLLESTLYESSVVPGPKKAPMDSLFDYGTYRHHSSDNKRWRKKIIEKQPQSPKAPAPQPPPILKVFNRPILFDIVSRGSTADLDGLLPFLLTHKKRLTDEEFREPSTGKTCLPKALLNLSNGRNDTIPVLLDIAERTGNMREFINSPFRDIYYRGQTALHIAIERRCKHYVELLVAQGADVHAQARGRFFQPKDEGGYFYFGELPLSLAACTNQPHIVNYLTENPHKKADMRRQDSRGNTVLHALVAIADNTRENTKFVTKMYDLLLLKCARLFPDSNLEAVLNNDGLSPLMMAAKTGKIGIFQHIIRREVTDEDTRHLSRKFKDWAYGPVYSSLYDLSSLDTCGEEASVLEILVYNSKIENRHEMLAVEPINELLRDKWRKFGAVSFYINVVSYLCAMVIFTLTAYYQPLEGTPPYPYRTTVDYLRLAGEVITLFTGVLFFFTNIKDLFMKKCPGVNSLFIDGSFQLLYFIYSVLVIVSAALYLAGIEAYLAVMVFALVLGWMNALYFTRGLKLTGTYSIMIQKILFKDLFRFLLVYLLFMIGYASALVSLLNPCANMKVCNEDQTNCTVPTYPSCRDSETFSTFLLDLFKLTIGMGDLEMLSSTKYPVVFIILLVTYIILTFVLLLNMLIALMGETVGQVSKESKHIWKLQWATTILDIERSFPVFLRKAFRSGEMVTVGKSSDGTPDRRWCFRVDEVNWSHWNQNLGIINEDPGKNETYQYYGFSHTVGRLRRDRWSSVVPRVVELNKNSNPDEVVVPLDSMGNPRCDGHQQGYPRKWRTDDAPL
Data set [2] in a line: Lipophilicity, chromatographic logD of compound at pH 7.4. The following applies: buffer.
Data set [3] is described as follows: Unbound clearance in Sprague-Dawley rat. It is filed as ADME. The following applies: in vivo.
Data set [4] in a line: Oral bioavailability in Sprague-Dawley rat at 2 mg/kg measured after 24 hrs by HPLC-MS/MS analysis. In kind it is ADME, organism-based. As to conditions: in vivo.
Data set [5] can be described thus: Volume of distribution at steady state in Sprague-Dawley rat at 1 mg/kg, iv measured after 24 hrs by HPLC-MS/MS analysis. In kind it is ADME, organism-based. The following applies: in vivo, read-out: Vdss.
A short description of data set [6]: Mean residence time in Sprague-Dawley rat at 1 mg/kg, iv measured after 24 hrs by HPLC-MS/MS analysis. It is filed as ADME, organism-based. The following applies: in vivo.
Data set [7] is described as follows: Clearance in Sprague-Dawley rat at 1 mg/kg, iv measured after 24 hrs by HPLC-MS/MS analysis. It is filed as ADME, organism-based. As to conditions: in vivo.
The nature of data set [8]: Unbound fraction in Sprague-Dawley rat plasma. It is filed as ADME, cell-free.
Data set [9] in a line: Unbound volume of distribution at steady state in Sprague-Dawley rat. In kind it is ADME. The following applies: in vivo.
The target in data set [10] is Transient receptor potential cation channel subfamily V member 4 (Rattus norvegicus, UniProt Q9ERZ8). Nature of the data set: Inhibition of rat TRPV4 expressed in baculovirus infected HEK/MSR 2 cells pre-incubated for 10 mins followed by GSK634775A addition by Fura-2 dye based FLIPR assay.
Transient receptor potential cation channel subfamily V member 4 (Rattus norvegicus, UniProt Q9ERZ8), sequence (Q9ERZ8 whole entry): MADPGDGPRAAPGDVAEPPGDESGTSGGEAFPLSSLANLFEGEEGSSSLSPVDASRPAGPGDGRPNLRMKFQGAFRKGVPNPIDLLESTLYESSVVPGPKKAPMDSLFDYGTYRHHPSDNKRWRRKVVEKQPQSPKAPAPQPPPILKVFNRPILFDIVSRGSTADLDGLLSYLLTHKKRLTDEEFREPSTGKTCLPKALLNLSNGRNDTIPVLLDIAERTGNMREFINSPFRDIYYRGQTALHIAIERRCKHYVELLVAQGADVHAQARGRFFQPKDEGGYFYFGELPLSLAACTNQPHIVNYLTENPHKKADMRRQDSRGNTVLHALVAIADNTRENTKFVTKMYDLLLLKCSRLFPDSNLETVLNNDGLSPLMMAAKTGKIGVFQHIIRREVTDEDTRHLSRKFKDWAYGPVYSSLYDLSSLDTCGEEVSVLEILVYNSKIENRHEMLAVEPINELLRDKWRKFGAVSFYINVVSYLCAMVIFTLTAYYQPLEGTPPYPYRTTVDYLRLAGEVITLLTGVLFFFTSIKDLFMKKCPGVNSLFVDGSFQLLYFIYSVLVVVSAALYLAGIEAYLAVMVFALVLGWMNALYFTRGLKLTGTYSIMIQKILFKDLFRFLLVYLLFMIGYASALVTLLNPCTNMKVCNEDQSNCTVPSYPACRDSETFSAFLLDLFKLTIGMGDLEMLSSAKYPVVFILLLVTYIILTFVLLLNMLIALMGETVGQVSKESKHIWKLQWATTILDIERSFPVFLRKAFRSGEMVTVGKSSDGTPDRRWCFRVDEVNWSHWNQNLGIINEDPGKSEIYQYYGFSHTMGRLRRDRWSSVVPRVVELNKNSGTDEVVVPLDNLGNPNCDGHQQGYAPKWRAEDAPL

One may read the IC50 as the concentration needed to halve the response being measured. In data set [1], `COc1cnc(N2C[C@@]3(CCC[C@](C)(Cn4cnc5ccc(C#N)cc54)C3)OC2=O)cn1` yielded an IC50 of 14 nM. This molecule came in with a ChromLogD in [2] of 4.8. Moreover, the CL free in data set [3] is 400 mL/min/kg.
Consider `Cc1cnc(N2C[C@@]3(CCC[C@](C)(Cn4cnc5ccc(C#N)cc54)C3)OC2=O)cn1`, for which, in data set [1], half-maximal inhibition (IC50) was put at 60 nM. This molecule came in with a ChromLogD in data set [2] of 4.2.
Taken in the same sequence, the figures for `COc1ccccc1N1C[C@@]2(CCC[C@H](Cn3cnc4ccc(C#N)cc43)C2)OC1=O` were 340 nM and 4.2.
For `C[C@]1(Cn2cnc3ccc(C#N)cc32)CCC[C@@]2(CN(c3cccc(Cl)c3)C(=O)O2)C1`, in that order: 48 nM and 5.7.
What is called bioavailability is the share of a dose that reaches the circulation, judged against a reference dose that is usually intravenous. For orientation: MRT means the average time that molecules of a dose stay in the body. The term clearance denotes the rate of elimination divided by the concentration. Read a low clearance as a low capacity for elimination. One may read the fraction unbound as free concentration divided by total concentration. The low end stands for little free substance, the high end for much free substance. `CC(C)(C)CN1C[C@@]2(CCC[C@](C)(Cn3cnc4ccc(C#N)cc43)C2)OC1=O`: the bioavailability in data set [4] was 32%. In data set [1], this molecule returned an IC50 of 0.5 nM. This molecule gave a ChromLogD in data set [2] of 4.6. For the same molecule, the Vd in data set [5] turned out to be 2.1 L/kg. The CL free in data set [3] amounted to 450 mL/min/kg. This molecule came in with an MRT in data set [6] of 0.5 h. This molecule also yielded a clearance in [7] of 63 mL/min/kg. For the same molecule, the fraction unbound in data set [8] was 0.14.
In [4], `CCOc1cnc(N2C[C@@]3(CCC[C@](C)(Cn4cnc5ccc(C#N)cc54)C3)OC2=O)cn1` had a bioavailability of 100%. The IC50 in [1] was 4.2 nM. The molecule further had a ChromLogD in data set [2] of 5.5. Further, in data set [5], the Vd worked out at 5.4 L/kg. Moreover, in data set [3], the CL free was 460 mL/min/kg. In addition, the MRT in [6] was found to be 5.2 h. The molecule also returned a clearance in data set [7] of 17 mL/min/kg. Besides, the fraction unbound in [8] worked out at 0.037.
`CCOc1ccc(N2C[C@@]3(CCC[C@H](Cn4cnc5ccc(C#N)cc54)C3)OC2=O)cc1`: in data set [1], the IC50 turned out to be 140 nM. Moreover, the ChromLogD in [2] amounted to 4.8.
For `C[C@]1(Cn2cnc3ccc(C#N)cc32)CCC[C@@]2(CN(c3ccccc3Cl)C(=O)O2)C1`, in that order: 2.5 nM and 4.8.
In the case of `CCOc1ccc(N2C[C@@]3(CCC[C@](C)(Cn4cnc5ccc(C#N)cc54)C3)OC2=O)nn1`, 60 nM corresponded to half-maximal inhibition in data set [1] (IC50). In data set [6], this molecule gave an MRT of 1.9 h. In [7], this molecule registered a clearance of 14 mL/min/kg.
On to `N#Cc1ccc2ncn(C[C@H]3CCC[C@]4(C3)CN(c3ccccc3F)C(=O)O4)c2c1`, for which, in [1], the IC50 came out at 540 nM. Besides, the ChromLogD in data set [2] is reported as 4.2.
Molecule `COc1ccccc1N1C[C@@]2(CCC[C@](C)(Cn3cnc4ccc(C#N)cc43)C2)OC1=O` displayed a bioavailability in [4] of 100%. In addition, the IC50 in data set [1] is 1.2 nM. Moreover, in data set [2], the ChromLogD amounted to 4.6. Moreover, the Vd in [5] amounted to 1.4 L/kg. In data set [3], the CL free amounted to 720 mL/min/kg. The molecule also came in with an MRT in [6] of 1 h. Further, the clearance in data set [7] came out at 26 mL/min/kg. This molecule also displayed a fraction unbound in data set [8] of 0.036.
On to `CCOc1cccc(N2C[C@@]3(CCC[C@](C)(Cn4cnc5ccc(C#N)cc54)C3)OC2=O)c1`, for which half-maximal inhibition in data set [1] (IC50) was put at 1.6 nM. This molecule showed a ChromLogD in data set [2] of 5.3.
For `N#Cc1ccc2ncn(C[C@H]3CCC[C@]4(C3)CN(c3ccccc3Cl)C(=O)O4)c2c1`, in that order: 63 nM and 4.3.
On to `C[C@]1(Cn2cnc3ccc(C#N)cc32)CCC[C@@]2(CN(c3cnc(C4CC4)cn3)C(=O)O2)C1`, for which, in [1], half-maximal inhibition (IC50) required 1.5 nM. In data set [2], this molecule gave a ChromLogD of 5.3. Besides, the CL free in data set [3] turned out to be 340 mL/min/kg.
Take `Cc1ccccc1N1C[C@@]2(CCC[C@](C)(Cn3cnc4ccc(C#N)cc43)C2)OC1=O`: in [1], it took 1.7 nM to reach half-maximal inhibition (IC50). Also, the ChromLogD in data set [2] was determined as 4.8.
In the case of `C[C@]1(Cn2cnc3ccc(C#N)cc32)CCC[C@@]2(CN(c3ccccc3)C(=O)O2)C1`, half-maximal inhibition in [1] (IC50) was put at 49 nM.
Turning to `CC(C)(C)CN1C[C@@]2(CCC[C@H](Cn3cnc4ccc(C#N)cc43)C2)OC1=O`, the bioavailability in data set [4] turned out to be 63%. Further, the IC50 in data set [1] is 16 nM; in data set [10], 5.5 nM. For the same molecule, the ChromLogD in data set [2] is 4.5. Further, the Vd in data set [5] came out at 2.6 L/kg. Moreover, in data set [9], the Vduss stood at 8.1 L/kg. Further, the CL free in [3] worked out at 200 mL/min/kg. In [6], this molecule had an MRT of 0.7 h. Moreover, the clearance in data set [7] worked out at 64 mL/min/kg. Also, in [8], the fraction unbound stood at 0.32.
Consider `N#Cc1ccc2ncn(C[C@H]3CCC[C@]4(C3)CN(c3ccccc3)C(=O)O4)c2c1`, for which it took 820 nM to reach half-maximal inhibition in data set [1] (IC50). The ChromLogD in data set [2] is recorded as 4.6.
Taken in the same sequence, the figures for `CCOc1cccc(N2C[C@@]3(CCC[C@H](Cn4cnc5ccc(C#N)cc54)C3)OC2=O)c1` were 74 nM and 5.
For `C[C@]1(Cn2cnc3ccc(C#N)cc32)CCC[C@@]2(CN(c3ccccc3F)C(=O)O2)C1`, in that order: 5.2 nM and 4.9.
As for `Cc1ccccc1N1C[C@@]2(CCC[C@H](Cn3cnc4ccc(C#N)cc43)C2)OC1=O`, inhibition in [1] was half-maximal at 310 nM (IC50). The molecule also gave a ChromLogD in [2] of 4.6.
In data set [4], `CCOc1ccc(N2C[C@@]3(CCC[C@](C)(Cn4cnc5ccc(C#N)cc54)C3)OC2=O)cc1` gave a bioavailability of 29%. In [1], inhibition was half-maximal at 5.2 nM (IC50). This molecule registered a ChromLogD in data set [2] of 5.4. For the same molecule, in data set [5], the Vd came to 7.2 L/kg. For the same molecule, the MRT in data set [6] was determined as 0.9 h. The molecule further registered a clearance in [7] of 140 mL/min/kg.
For `N#Cc1ccc2ncn(C[C@H]3CCC[C@]4(C3)CN(c3cccc(Cl)c3)C(=O)O4)c2c1`, the IC50 in data set [1] was found to be 240 nM. The molecule further came in with a ChromLogD in data set [2] of 5.3.
Regarding `CCOc1ccc(N2C[C@@]3(CCC[C@](C)(Cn4cnc5ccc(C#N)cc54)C3)OC2=O)cn1`, the IC50 in data set [1] was found to be 3.1 nM. For the same molecule, the MRT in data set [6] turned out to be 1.6 h. This molecule also returned a clearance in data set [7] of 24 mL/min/kg. In [8], this molecule registered a fraction unbound of 0.031.
Regarding `CC(C)(C)c1cnc(N2C[C@@]3(CCC[C@](C)(Cn4cnc5ccc(C#N)cc54)C3)OC2=O)cn1`, half-maximal inhibition in [1] (IC50) required 1.2 nM. Further, the ChromLogD in data set [2] was 6.3.
The molecule `C[C@]1(Cn2cnc3ccc(C#N)cc32)CCC[C@@]2(CN(c3ccc(F)cc3)C(=O)O2)C1` yielded a bioavailability in data set [4] of 100%. The IC50 in data set [1] came to 96 nM. This molecule also returned a ChromLogD in data set [2] of 4.9. In addition, in [5], the Vd was determined as 6.5 L/kg. Further, the MRT in [6] was 2.8 h. Moreover, the clearance in data set [7] is 39 mL/min/kg.
Take `N#Cc1ccc2ncn(C[C@H]3CCC[C@]4(C3)CN(c3ccc(F)cc3)C(=O)O4)c2c1` (racemic): the bioavailability in data set [4] worked out at 100%. This molecule yielded an IC50 in data set [1] of 1900 nM. This molecule also gave a ChromLogD in data set [2] of 4.5. The Vd in data set [5] worked out at 4 L/kg. The Vduss in data set [9] came out at 61 L/kg. In [3], this molecule showed a CL free of 350 mL/min/kg. The molecule further displayed an MRT in data set [6] of 3.1 h. The clearance in [7] is 23 mL/min/kg. Besides, the fraction unbound in data set [8] stood at 0.065.
Consider `CC(C)(C)CN1C[C@@]2(CCC[C@H](C(C)(C)n3cnc4ccc(C#N)cc43)C2)OC1=O` (racemic), for which, in [4], the bioavailability was found to be 8%. The same molecule gave an IC50 in data set [1] above 25000 nM. In data set [2], this molecule yielded a ChromLogD of 4.6. For the same molecule, the Vd in [5] amounted to 1.1 L/kg. Moreover, the MRT in [6] was determined as 0.3 h. Further, the clearance in [7] turned out to be 70 mL/min/kg.
The molecule `CC(C)(C)N1C[C@@]2(CCC[C@H](Cn3cnc4ccc(C#N)cc43)C2)OC1=O` (racemic) displayed a bioavailability in data set [4] of 44%. In [1], this molecule gave an IC50 of 5200 nM. Besides, the ChromLogD in data set [2] worked out at 4. In [5], the Vd is 1.8 L/kg. In [6], the MRT was 0.5 h. This molecule displayed a clearance in [7] of 55 mL/min/kg.
Consider `CC(C)(O)c1cnc(N2C[C@@]3(CCC[C@](C)(Cn4cnc5ccc(C#N)cc54)C3)OC2=O)cn1` [GSK2798745], for which, in data set [4], the bioavailability is 59%. Further, the figures for the IC50 in data set [1] and in [10] were 1.8 nM and 1.6 nM, respectively. This molecule also displayed a ChromLogD in data set [2] of 4. Moreover, in data set [5], the Vd came to 1.9 L/kg. This molecule also displayed a CL free in data set [3] of 79 mL/min/kg. In [6], the MRT was determined as 4.9 h. Besides, the clearance in data set [7] was determined as 6.5 mL/min/kg. The fraction unbound in data set [8] came out at 0.082.
